Legend:
A-1 fibroblasts = settings: previous report; ref Roch et al., 1992; cited from earlier work
A-1 cells = format: cell-based; settings: included in the assay media at 100 ug/ml; data not shown

Substance	Activity on the A-1 cell growth assay (A-1 fibroblasts)	Inhibition of the growth-promoting effect of 17-mer or KB75 (A-1 cells)
TPDAVDKYLETPGDENEHAHFQKAKERLEAKHRERMSQVM [40-mer]	active	–
heparan sulfate	–	failed to inhibit
heparin	–	failed to inhibit

Reference: paper PMC2119788 (The Journal of Cell Biology, 1993)
